Tests used:
Assay in all cases: relative viability (nuclei count vs DMSO), 5 days (fraction); higher = more cells survive
A-427 = tested on: A-427
Method in brief: (§1)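 Values are medians from duplicate plates. Each reflects relative viability, defined as the nuclei count of treated wells over that of vehicle wells. Lung cancer cell lines in 1536-well plates were pin-tool dosed one day after seeding with one drug alone or with a fixed anchor-drug dose plus five library-drug doses (not always all listed) in √10 steps, then fixed, stained and imaged at 4× after 5 days.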

ABC-1 = tested on: ABC-1
Method in brief: as §1

COR-L23 = tested on: COR-L23
Method in brief: as §1

ChaGo-K-1 = tested on: ChaGo-K-1
Method in brief: as §1

EMC-BAC-2 = tested on: EMC-BAC-2
Method in brief: as §1

HARA = tested on: HARA
Method in brief: as §1

HCC-15 = tested on: HCC-15
Method in brief: as §1

HCC-366 = tested on: HCC-366
Method in brief: as §1

HCC-78 = tested on: HCC-78
Method in brief: as §1

LC-2-ad = tested on: LC-2-ad
Method in brief: as §1

NCI-H1734 = tested on: NCI-H1734
Method in brief: as §1

NCI-H1793 = tested on: NCI-H1793
Method in brief: as §1

NCI-H1944 = tested on: NCI-H1944
Method in brief: as §1

NCI-H1993 = tested on: NCI-H1993
Method in brief: as §1

NCI-H2009 = tested on: NCI-H2009
Method in brief: as §1

NCI-H2023 = tested on: NCI-H2023
Method in brief: as §1

NCI-H2126 = tested on: NCI-H2126
Method in brief: as §1

NCI-H2228 = tested on: NCI-H2228
Method in brief: as §1

NCI-H23 = tested on: NCI-H23
Method in brief: as §1

NCI-H2405 = tested on: NCI-H2405
Method in brief: as §1

NCI-H838 = tested on: NCI-H838
Method in brief: as §1

SK-LU-1 = tested on: SK-LU-1
Method in brief: as §1

UMC-11 = tested on: UMC-11
Method in brief: as §1

Compound: C=C1C(=O)O[C@@H](CCCCCCCC)[C@@H]1C(=O)O [C-75] + COc1cccc2cc(-c3nc([C@H]4CC[C@H](C(=O)O)CC4)n4ncnc(N)c34)[nH]c12 [OSI-027] (partner 0.5 µM)
- relative viability (A-427; first compound 0.08 µM): 0.516
- relative viability (A-427; first compound 0.253 µM): 0.51
- relative viability (A-427; first compound 0.8 µM): 0.488
- relative viability (A-427; first compound 2.53 µM): 0.439
- relative viability (A-427; first compound 8 µM): 0.39
- relative viability (ABC-1; first compound 0.08 µM): 0.498
- relative viability (ABC-1; first compound 0.253 µM): 0.587
- relative viability (ABC-1; first compound 0.8 µM): 0.479
- relative viability (ABC-1; first compound 2.53 µM): 0.379
- relative viability (ABC-1; first compound 8 µM): 0.35
- relative viability (COR-L23; first compound 0.08 µM): 0.74
- relative viability (COR-L23; first compound 0.253 µM): 0.886
- relative viability (COR-L23; first compound 0.8 µM): 0.767
- relative viability (COR-L23; first compound 2.53 µM): 0.676
- relative viability (COR-L23; first compound 8 µM): 0.701
- relative viability (ChaGo-K-1; first compound 0.08 µM): 0.605
- relative viability (ChaGo-K-1; first compound 0.253 µM): 0.545
- relative viability (ChaGo-K-1; first compound 0.8 µM): 0.532
- relative viability (ChaGo-K-1; first compound 2.53 µM): 0.422
- relative viability (ChaGo-K-1; first compound 8 µM): 0.564
- relative viability (EMC-BAC-2; first compound 0.08 µM): 0.416
- relative viability (EMC-BAC-2; first compound 0.253 µM): 0.385
- relative viability (EMC-BAC-2; first compound 0.8 µM): 0.384
- relative viability (EMC-BAC-2; first compound 2.53 µM): 0.269
- relative viability (EMC-BAC-2; first compound 8 µM): 0.341
- relative viability (HARA; first compound 0.08 µM): 0.634
- relative viability (HARA; first compound 0.253 µM): 0.587
- relative viability (HARA; first compound 0.8 µM): 0.513
- relative viability (HARA; first compound 2.53 µM): 0.31
- relative viability (HARA; first compound 8 µM): 0.441
- relative viability (HCC-15; first compound 0.08 µM): 0.628
- relative viability (HCC-15; first compound 0.253 µM): 0.707
- relative viability (HCC-15; first compound 0.8 µM): 0.655
- relative viability (HCC-15; first compound 2.53 µM): 0.502
- relative viability (HCC-15; first compound 8 µM): 0.636
- relative viability (HCC-366; first compound 0.08 µM): 1.06
- relative viability (HCC-366; first compound 0.253 µM): 1.31
- relative viability (HCC-366; first compound 0.8 µM): 0.897
- relative viability (HCC-366; first compound 8 µM): 0.834
- relative viability (HCC-78; first compound 0.08 µM): 0.354
- relative viability (HCC-78; first compound 0.253 µM): 0.42
- relative viability (HCC-78; first compound 0.8 µM): 0.376
- relative viability (HCC-78; first compound 2.53 µM): 0.329
- relative viability (HCC-78; first compound 8 µM): 0.422
- relative viability (LC-2-ad; first compound 0.08 µM): 0.745
- relative viability (LC-2-ad; first compound 0.253 µM): 0.799
- relative viability (LC-2-ad; first compound 0.8 µM): 0.747
- relative viability (LC-2-ad; first compound 2.53 µM): 0.646
- relative viability (LC-2-ad; first compound 8 µM): 0.686
- relative viability (NCI-H1734; first compound 0.08 µM): 0.593
- relative viability (NCI-H1734; first compound 0.253 µM): 0.621
- relative viability (NCI-H1734; first compound 0.8 µM): 0.481
- relative viability (NCI-H1734; first compound 2.53 µM): 0.323
- relative viability (NCI-H1734; first compound 8 µM): 0.455
- relative viability (NCI-H1793; first compound 0.08 µM): 0.337
- relative viability (NCI-H1793; first compound 0.253 µM): 0.284
- relative viability (NCI-H1793; first compound 0.8 µM): 0.241
- relative viability (NCI-H1793; first compound 2.53 µM): 0.224
- relative viability (NCI-H1793; first compound 8 µM): 0.342
- relative viability (NCI-H1944; first compound 0.08 µM): 0.441
- relative viability (NCI-H1944; first compound 0.253 µM): 0.426
- relative viability (NCI-H1944; first compound 0.8 µM): 0.392
- relative viability (NCI-H1944; first compound 8 µM): 0.448
- relative viability (NCI-H1993; first compound 0.08 µM): 0.558
- relative viability (NCI-H1993; first compound 0.253 µM): 0.61
- relative viability (NCI-H1993; first compound 0.8 µM): 0.491
- relative viability (NCI-H1993; first compound 2.53 µM): 0.539
- relative viability (NCI-H1993; first compound 8 µM): 0.589
- relative viability (NCI-H2009; first compound 0.08 µM): 0.675
- relative viability (NCI-H2009; first compound 0.253 µM): 0.686
- relative viability (NCI-H2009; first compound 0.8 µM): 0.567
- relative viability (NCI-H2009; first compound 2.53 µM): 0.545
- relative viability (NCI-H2009; first compound 8 µM): 0.426
- relative viability (NCI-H2023; first compound 0.08 µM): 0.455
- relative viability (NCI-H2023; first compound 0.253 µM): 0.558
- relative viability (NCI-H2023; first compound 0.8 µM): 0.34
- relative viability (NCI-H2023; first compound 2.53 µM): 0.415
- relative viability (NCI-H2023; first compound 8 µM): 0.32
- relative viability (NCI-H2126; first compound 0.08 µM): 0.762
- relative viability (NCI-H2126; first compound 0.253 µM): 0.757
- relative viability (NCI-H2126; first compound 0.8 µM): 0.707
- relative viability (NCI-H2126; first compound 2.53 µM): 0.744
- relative viability (NCI-H2126; first compound 8 µM): 0.66
- relative viability (NCI-H2228; first compound 0.08 µM): 0.534
- relative viability (NCI-H2228; first compound 0.253 µM): 0.686
- relative viability (NCI-H2228; first compound 0.8 µM): 0.398
- relative viability (NCI-H2228; first compound 2.53 µM): 0.302
- relative viability (NCI-H2228; first compound 8 µM): 0.517
- relative viability (NCI-H23; first compound 0.08 µM): 0.742
- relative viability (NCI-H23; first compound 0.253 µM): 0.698
- relative viability (NCI-H23; first compound 0.8 µM): 0.575
- relative viability (NCI-H23; first compound 2.53 µM): 0.375
- relative viability (NCI-H23; first compound 8 µM): 0.448
- relative viability (NCI-H2405; first compound 0.08 µM): 0.7
- relative viability (NCI-H2405; first compound 0.253 µM): 0.63
- relative viability (NCI-H2405; first compound 0.8 µM): 0.657
- relative viability (NCI-H2405; first compound 2.53 µM): 0.519
- relative viability (NCI-H2405; first compound 8 µM): 0.698
- relative viability (NCI-H838; first compound 0.08 µM): 0.442
- relative viability (NCI-H838; first compound 0.8 µM): 0.37
- relative viability (NCI-H838; first compound 2.53 µM): 0.36
- relative viability (NCI-H838; first compound 8 µM): 0.404
- relative viability (SK-LU-1; first compound 0.08 µM): 0.348
- relative viability (SK-LU-1; first compound 0.253 µM): 0.379
- relative viability (SK-LU-1; first compound 0.8 µM): 0.416
- relative viability (SK-LU-1; first compound 2.53 µM): 0.319
- relative viability (SK-LU-1; first compound 8 µM): 0.308
- relative viability (UMC-11; first compound 0.08 µM): 0.457
- relative viability (UMC-11; first compound 0.253 µM): 0.579
- relative viability (UMC-11; first compound 0.8 µM): 0.477
- relative viability (UMC-11; first compound 2.53 µM): 0.461
- relative viability (UMC-11; first compound 8 µM): 0.417

Source: the supplement of paper PMC10307832
